In patent publication US20240018166A1, “SULFONYL UREA NLRP3 INFLAMMASOME INHIBITORS” (Venatorx Pharmaceuticals, Inc., priority 2020, published 2024):

Key:
Format in all cases: cell-based
IL-1β = IL-1β inhibition assay (ELISA/HTRF of culture supernatants); details: Homo sapiens, PMA-differentiated THP-1 cells, tested 10 μM to 0.003 μM
Description: Human monocyte-like THP-1 cells were grown in RPMI media supplemented with 10% FBS (growth media) at 37° C., 5% CO2. Cell cultures were passaged every three days and maintained at a density of 5×10^5 to 1×10^6 cells per mL.
Compounds were prepared as 10 mM stock solutions in 100% DMSO. […] Each 200× dilution was then diluted 20-fold in growth media (step down dilution) to yield a 10× final assay concentration range. All compounds were tested over a final assay concentration range of 10 μM to 0.003 μM.
The level of IL-10 in supernatants from PMA-differentiated THP-1 cells was determined by ELISA using either the R&D Systems Human IL-1 beta/IL-1F2 Quantikine ELISA or the cisbio HTRF human IL 1 beta kit. Manufacturer's protocols were followed without deviation.
Background values were subtracted and resulting values were converted to percentage of vehicle-treated controls. Data was analyzed via GraphPad Prism 7.0 using a non-linear regression (variable slope (four-parameter)) equation.
Table 2 provides IL-10 ELISA EC50 values for example compounds. A indicates EC50>10 μM; B indicates EC50 between 1 and 10 μM (inclusive); C indicates EC50<1 μM.

[1] = MTT cell viability assay, THP-1 cells; details: human, unstimulated THP-1 cells, read-out: THP-1 Cytotoxicity CC50
Description: (§1) In order to assess the cytotoxicity of the compounds, an MTT cell viability assay was performed in either unstimulated THP-1 or HepG2 cells as follows. 5×10^4 THP-1 or 5×10^3 HepG2 cells were seeded into each well of a 96-well plate in 90 μL of media. Compounds were added to cells as described for the IL-10 assay and returned to the incubator for an additional 72 hours. Next, 25 μL of MTT solution (5 mg/mL in sterile PBS) was added to each well. Plates were incubated for 3 hours at 37° C., 5% CO2. Next, for THP-1 cells, 100 μl of MTT solubilization solution (40% Dimethylformamide, 2% glacial acetic acid, 16% sodium dodecyl sulfate) was then added to each well and plates were incubated at room temperature in the dark overnight. For HepG2 cells, media was aspirated, 50 μL of DMSO was added and plates were mixed briefly with an orbital plate shaker. Absorbance at 570 nm was measured using a Perkin-Elmer EnVision plate reader.
Absorbance values were converted to percentage of vehicle-treated controls. Data was then analyzed using a non-linear regression (variable slope (four-parameter)) equation in GraphPad Prism 7.0.
Table 2 provides THP-1 cytotoxicity assay CC50 values for example compounds. A indicates CC50>10 μM; B indicates CC50 between 1 and 10 μM (inclusive); C indicates CC50<1 μM. NT, not tested.

[2] = MTT cell viability assay, HepG2 cells; details: human, read-out: HepG2 Cytotoxicity CC50
Description: as §1
Absorbance values were converted to percentage of vehicle-treated controls. Data was then analyzed using a non-linear regression (variable slope (four-parameter)) equation in GraphPad Prism 7.0. […]

Structure (SMILES) | EC50 (IL-1β) | CC50 at 72 h [1] | CC50 at 72 h [2]
CC1(C)OB(CCCc2cccc(S(=O)(=O)NC(=O)Nc3c4c(cc5c3CCC5)CCC4)c2)OC1(C)C [Example 46, N-((1,2,3,5,6,7-hexahydro-s-indacen-4-yl)carbamoyl)-3-(3-(4,4,5,5-tetramethyl-1,3,2-dioxaborolan-2-yl)propyl)benzenesulfonamide] | 1000 to 10000 nM | > 10 µM | 
CC1(C)OB(O)c2cc(S(=O)(=O)NC(=O)Nc3c4c(cc5c3CCC5)CCC4)ccc21 [Example 47, N-((1,2,3,5,6,7-hexahydro-s-indacen-4-yl)carbamoyl)-1-hydroxy-3,3-dimethyl-1,3-dihydrobenzo[c][1,2]oxaborole-6-sulfonamide] | 1000 to 10000 nM | > 10 µM | 
CC1(C)[C@@H]2C[C@H]3OB(CCCc4cc(S(=O)(=O)NC(=O)Nc5c6c(cc7c5CCC7)CCC6)ccc4O)O[C@@]3(C)[C@H]1C2 [Example 49, N-((1,2,3,5,6,7-hexahydro-s-indacen-4-yl)carbamoyl)-4-hydroxy-3-(3-((3aS,4S,6S,7aR)-3a,5,5-trimethylhexahydro-4,6-methanobenzo[d][1,3,2]dioxaborol-2-yl)propyl)benzenesulfonamide] | 1000 to 10000 nM | > 10 µM | 
CC1(C)OB(CCCn2ccc(S(=O)(=O)NC(=O)Nc3c4c(cc5c3CCC5)CCC4)n2)OC1(C)C [Example 59, N-((1,2,3,5,6,7-hexahydro-s-indacen-4-yl)carbamoyl)-1-(3-(4,4,5,5-tetramethyl-1,3,2-dioxaborolan-2-yl)propyl)-1H-pyrazole-3-sulfonamide] | < 1000 nM | > 10 µM | 
O=C(Nc1c2c(cc3c1CCC3)CCC2)NS(=O)(=O)c1ccn(CCCB(O)O)n1 [Example 63, (3-(3-(N-((1,2,3,5,6,7-hexahydro-s-indacen-4-yl)carbamoyl)sulfamoyl)-1H-pyrazol-1-yl)propyl)boronic acid] | < 1000 nM |  | > 10 µM
CC(CB(O)O)Cn1ccc(S(=O)(=O)NC(=O)Nc2c3c(cc4c2CCC4)CCC3)n1 (stereo not shown) [Example 65, (3-(3-(N-((1,2,3,5,6,7-hexahydro-s-indacen-4-yl)carbamoyl)sulfamoyl)-1H-pyrazol-1-yl)-2-methylpropyl)boronic acid] | < 1000 nM |  | > 10 µM
CC(C)(Cn1ccc(S(=O)(=O)NC(=O)Nc2c3c(cc4c2CCC4)CCC3)n1)B1OC(C)(C)C(C)(C)O1 [Example 66, N-((1,2,3,5,6,7-hexahydro-s-indacen-4-yl)carbamoyl)-1-(2-methyl-2-(4,4,5,5-tetramethyl-1,3,2-dioxaborolan-2-yl)propyl)-1H-pyrazole-3-sulfonamide] | < 1000 nM |  | > 10 µM
CC(C)c1cc(C#N)c(F)c(C(C)C)c1NC(=O)NS(=O)(=O)c1ccn(CCCB(O)O)n1 [Example 68, (3-(3-(N-((4-cyano-3-fluoro-2,6-diisopropylphenyl)carbamoyl)sulfamoyl)-1H-pyrazol-1-yl)propyl)boronic acid] | < 1000 nM |  | > 10 µM
CC1(C)OB(CCCC2(S(=O)(=O)NC(=O)Nc3c4c(cc5c3CCC5)CCC4)CC2)OC1(C)C [Example 70, N-((1,2,3,5,6,7-hexahydro-s-indacen-4-yl)carbamoyl)-1-(3-(4,4,5,5-tetramethyl-1,3,2-dioxaborolan-2-yl)propyl)cyclopropane-1-sulfonamide] | 1000 to 10000 nM |  | > 10 µM
CC(C)(O)c1coc(S(=O)(=O)NC(=O)Nc2c3c(cc4c2CCC4)CCC3)c1 [MCC-950, reference compound] | < 1000 nM | > 10 µM | 

More lines, main results first:

EC50 (IL-1β) | Structure (SMILES) | CC50 at 72 h [1] | CC50 at 72 h [2]
1000 to 10000 nM | CC1(C)[C@@H]2C[C@H]3OB(CCCc4ccc(S(=O)(=O)NC(=O)Nc5c6c(cc7c5CCC7)CCC6)cc4O)O[C@@]3(C)[C@H]1C2 [Example 48, N-((1,2,3,5,6,7-hexahydro-s-indacen-4-yl)carbamoyl)-3-hydroxy-4-(3-((3aS,4S,6S,7aR)-3a,5,5-trimethylhexahydro-4,6-methanobenzo[d][1,3,2]dioxaborol-2-yl)propyl)benzenesulfonamide] | > 10 µM | 
1000 to 10000 nM | COc1ccc(S(=O)(=O)NC(=O)Nc2c3c(cc4c2CCC4)CCC3)cc1CCCB1O[C@@H]2C[C@@H]3C[C@@H](C3(C)C)[C@]2(C)O1 [Example 50, N-((1,2,3,5,6,7-hexahydro-s-indacen-4-yl)carbamoyl)-4-methoxy-3-(3-((3aS,4S,6S,7aR)-3a,5,5-trimethylhexahydro-4,6-methanobenzo[d][1,3,2]dioxaborol-2-yl)propyl)benzenesulfonamide] | > 10 µM | 
1000 to 10000 nM | COc1cc(-c2ccc3c(c2NC(=O)NS(=O)(=O)c2ccc4c(c2)COB4O)CCC3)ccn1 [Example 51, 1-hydroxy-N-((5-(2-methoxypyridin-4-yl)-2,3-dihydro-1H-inden-4-yl)carbamoyl)-1,3-dihydrobenzo[c][1,2]oxaborole-5-sulfonamide] | > 10 µM | 
< 1000 nM | CC(CB1OC(C)(C)C(C)(C)O1)c1coc(S(=O)(=O)NC(=O)Nc2c3c(cc4c2CCC4)CCC3)c1 (stereo not shown) [Example 58, N-((1,2,3,5,6,7-hexahydro-s-indacen-4-yl)carbamoyl)-4-(1-(4,4,5,5-tetramethyl-1,3,2-dioxaborolan-2-yl)propan-2-yl)furan-2-sulfonamide] |  | > 10 µM
< 1000 nM | CC(CB1OC(C)(C)C(C)(C)O1)Cn1ccc(S(=O)(=O)NC(=O)Nc2c3c(cc4c2CCC4)CCC3)n1 (stereo not shown) [Example 64, N-((1,2,3,5,6,7-hexahydro-s-indacen-4-yl)carbamoyl)-1-(2-methyl-3-(4,4,5,5-tetramethyl-1,3,2-dioxaborolan-2-yl)propyl)-1H-pyrazole-3-sulfonamide] |  | > 10 µM
< 1000 nM | CC1(C)CCc2c1nc1c(c2NC(=O)NS(=O)(=O)c2ccn(CCCB(O)O)n2)CCC1 [Example 67, (3-(3-(N-((3,3-dimethyl-1,2,3,5,6,7-hexahydrodicyclopenta[b,e]pyridin-8-yl)carbamoyl)sulfamoyl)-1H-pyrazol-1-yl)propyl)boronic acid] |  | > 10 µM
< 1000 nM | COc1cc(-c2ccc3c(c2NC(=O)NS(=O)(=O)c2ccn(CCCB(O)O)n2)CCC3)ccn1 [Example 69, (3-(3-(N-((5-(2-methoxypyridin-4-yl)-2,3-dihydro-1H-inden-4-yl)carbamoyl)sulfamoyl)-1H-pyrazol-1-yl)propyl)boronic acid] |  | > 10 µM
1000 to 10000 nM | O=C(Nc1c2c(cc3c1CCC3)CCC2)NS(=O)(=O)C1(CCCB(O)O)CC1 [Example 71, (3-(1-(N-((1,2,3,5,6,7-hexahydro-s-indacen-4-yl)carbamoyl)sulfamoyl)cyclopropyl)propyl)boronic acid] |  | > 10 µM
1000 to 10000 nM | O=C(Nc1c2c(cc3c1CCC3)CCC2)NS(=O)(=O)C1CCN(CCCB(O)O)CC1 [Example 72, (3-(4-(N-((1,2,3,5,6,7-hexahydro-s-indacen-4-yl)carbamoyl)sulfamoyl)piperidin-1-yl)propyl)boronic acid] |  | > 10 µM
< 1000 nM | CC1(C)OB(CCCN2CC(S(=O)(=O)NC(=O)Nc3c4c(cc5c3CCC5)CCC4)C2)OC1(C)C [Example 73, N-((1,2,3,5,6,7-hexahydro-s-indacen-4-yl)carbamoyl)-1-(3-(4,4,5,5-tetramethyl-1,3,2-dioxaborolan-2-yl)propyl)azetidine-3-sulfonamide] |  | > 10 µM
